Test results reported in patent publication US9120815B2, “Solid state forms of macrocyclic kinase inhibitors” (Tragara Pharmaceuticals, Inc., priority 2010, dated 2015).
“Also recorded” adds a separate entry of the source.

How the values were obtained:
Format in all cases: physicochemical
[1] = Stability in humidity chamber 40° C./75% R.H. (XRPD, HPLC); conditions: 2 weeks
Method: After 2 days, the solids were isolated by filtration under vacuum at RT to be characterised by XRPD analysis. Each new crystalline solid phase detected was characterised by ^1H NMR and TGA-DSC analyses in order to determine if salt formation had occurred and whether the material was a solvate. At this stage, each salt identified was then analysed by HPLC to determine the chemical purity prior to being stored in the humidity chamber (40° C./75% R.H.) to assess its stability.

[2] = Gravimetric Vapour Sorption (GVS) at 25° C.
Method: Sorption isotherms were obtained using a SMS DVS Intrinsic moisture sorption analyser, controlled by SMS Analysis Suite software. The sample temperature was maintained at 25° C. by the instrument controls. The humidity was controlled by mixing streams of dry and wet nitrogen, with a total flow rate of 200 ml.min^−1. The relative humidity was measured by a calibrated Rotronic probe (dynamic range of 1.0-100% RH), located near the sample. The weight change, (mass relaxation) of the sample as a function of % RH was constantly monitored by the microbalance (accuracy ±0.005 mg). Typically 5-20 mg of sample was placed in a tared mesh stainless steel basket under ambient conditions. The sample was loaded and unloaded at 40% RH and 25° C. (typical room conditions). A moisture sorption isotherm was performed as outlined below (2 scans giving 1 complete cycle). The standard isotherm was performed at 25° C. at 10% RH intervals over a 0.5-90% RH range. The sample was recovered after completion of the isotherm and re-analysed by XRPD.

[3] = Solid state stability at ambient conditions
[4] = Polymorph screen: maturation in solvents, XRPD; conditions: for XPRD Characterisation after maturation: 3 days
Method: An initial polymorphism screen was performed for the fumarate and citrate salts using 10 common class II and III organic solvents (with and without addition of water), plus pure water. […] The samples were subjected to a series of heat/cool cycles (room temp […], 8 hour cycles). After 3 days, the samples were filtered and the solids were characterised by XRPD analysis.

[5] = Thermodynamic aqueous solubility; conditions: for solubility at 24 h: 25 °C, thermodynamic from solid; for solubility at 24 h / aqueous solubility: water; for final pH: pH of the aqueous suspension after equilibration; for aqueous solubility: 25° C., 24 hours
Method: Aqueous solubility was determined by suspending sufficient compound in water to give a maximum final concentration of 210 mg·ml^−1 of the parent free-form of the compound. The suspension was equilibrated at 25° C. for 24 hours then the pH was measured. The suspension was then filtered through a glass fibre C filter into a 96 well plate. The filtrate was then diluted by a factor of 101. Quantitation was by HPLC with reference to a standard solution of approximately 0.1 mg·ml^−1. in DMSO. Different volumes of the standard, diluted and undiluted sample solutions were injected. The solubility was calculated using the peak areas determined by integration of the peak found at the same retention time as the principal peak in the standard injection.
Analysis was performed on an Agilent HP1 100 series system equipped with a diode array detector and using ChemStation software vB.02.01-SR1.

[6] = Stability study: rate of hydration of anhydrous polymorph in methocel/Tween 80 test medium, XRPD; conditions: for Time points where transformation was observed: no seeds
Method: Test medium was prepared by dissolving methocel (4 g) in water (196 mL) to afford a 2% (w/w) solution. After stirring for 12 hours to ensure a homogenous solution is obtained, Tween 80 (800 mg) and water (600 mL) was added and the mixture stirred for an additional 12 hours to homogenise.
(§1) Test medium (30 mL) was added and each sample was maturated at the indicated temperature and condition (−20° C., 4° C., room temperature with stirring and room temperature without stirring). […] The samples were monitored over time by XRPD to determine the rate of hydration of the anhydrous polymorph.
as §1, with “(5” for “(30”

[7] = Acetonitrile, w/ water (5% v/v)
[8] = DCM, w/o water, RT-50° C. cycles
[9] = Ethyl acetate, w/ water (5% v/v)
[10] = nitromethane, w/ water (5% v/v)
[11] = 1 mg/mL, 20-25° C. (under stirring)
[12] = 1 mg/mL, 20-25° C. (without stirring)
[13] = 10 mg/mL, 20-25° C. (under stirring)
[14] = 10 mg/mL, 20-25° C. (without stirring)
[15] = listed as Fumiarate Pattern 2, fumarate

CN1CC=CCCOc2cccc(c2)C2=CC=NC(=Nc3cccc(c3)C1)N2.O=S(=O)(O)c1ccccc1 [Besylate Pattern 1, 14-methyl-20-oxa-5,7,14,27-tetraazatetracyclo-[19.3.1.12,6.18,12]heptacosa-1(25),2,4,6,8,10,12(26),16,21,23-decaene besylate]
XPRD stability after 40° C./75% RH 2 weeks ([1]; besylate): stable
XPRD stability after 40° C./75% RH 2 weeks ([1]; listed as Besylate pattern 1, besylate): No change

CN1CC=CCCOc2cccc(c2)C2=CC=NC(=Nc3cccc(c3)C1)N2.O=C(O)CC(O)(CC(=O)O)C(=O)O [Citrate Pattern 1, 14-methyl-20-oxa-5,7,14,27-tetraazatetracyclo-[19.3.1.12,6.18,12]heptacosa-1(25),2,4,6,8,10,12(26),16,21,23-decaene citrate]
XPRD stability after 40° C./75% RH 2 weeks ([1]; citrate): not sensitive to humidity; also recorded: no transformation; also recorded: crystallinity, and no change was observed after
XPRD stability after 40° C./75% RH 2 weeks ([1]; listed as Citrate pattern 1, citrate): No change
changes in the XRPD pattern after the GVS experiment ([2]; citrate): no transformation; also recorded: between 0 and 90% relative humidity. No
stability in the solid state [3]: stable
XPRD Characterisation after maturation ([4]; Acetone, w/ water (5% v/v)): Citrate Pattern 1
XPRD Characterisation after maturation ([4]; Acetone, w/o water): Citrate Pattern 1
XPRD Characterisation after maturation [4, 7]: Citrate Pattern 2
XPRD Characterisation after maturation ([4]; Acetonitrile, w/o water): Citrate Pattern 1
XPRD Characterisation after maturation ([4]; DCM, w/ water (5% v/v)): Citrate Pattern 3
XPRD Characterisation after maturation [4, 8]: Citrate Pattern 1
XPRD Characterisation after maturation ([4]; EtOH, w/ water (5% v/v)): Citrate Pattern 1
XPRD Characterisation after maturation ([4]; EtOH, w/o water): Citrate Pattern 1
XPRD Characterisation after maturation [4, 9]: Citrate Pattern 2
XPRD Characterisation after maturation ([4]; Ethyl acetate, w/o water): Citrate Pattern 1
XPRD Characterisation after maturation ([4]; IPA, w/ water (5% v/v)): Citrate Pattern 1
XPRD Characterisation after maturation ([4]; IPA, w/o water): Citrate Pattern 1
XPRD Characterisation after maturation ([4]; TBME, w/ water (5% v/v)): Citrate Pattern 2
XPRD Characterisation after maturation ([4]; TBME, w/o water): Citrate Pattern 1
XPRD Characterisation after maturation ([4]; THF, w/ water (5% v/v)): Citrate Pattern 2
XPRD Characterisation after maturation ([4]; THF, w/o water): Citrate Pattern 1
XPRD Characterisation after maturation ([4]; Toluene, w/ water (5% v/v)): Citrate Pattern 2
XPRD Characterisation after maturation ([4]; Toluene, w/o water): Citrate Pattern 1
transformation after 3 days of maturation in dried solvents [4]: No transformation
XPRD Characterisation after maturation [4, 10]: Citrate Pattern 2
XPRD Characterisation after maturation ([4]; nitromethane, w/o water): Citrate Pattern 1
XPRD Characterisation after maturation ([4]; pure water): Citrate Pattern 2
solubility at 24 h [5]: 160 µg/mL
final pH [5]: 3.94
aqueous solubility [5]: 0.16 mg/mL
kinetics of hydration ([6]; comparison of citrate and fumarate salts): slower than for the fumarate salt
Time points where transformation was observed ([6]; 1 mg/mL, 4° C.): No
Time points where transformation was observed [6, 11]: 120 h
Time points where transformation was observed [6, 12]: Clear Solution
Time points where transformation was observed ([6]; 1 mg/mL, −20° C.): No
Time points where transformation was observed ([6]; 10 mg/mL, 4° C.): No
Time points where transformation was observed [6, 13]: 48 h
Time points where transformation was observed [6, 14]: No conversion
Time points where transformation was observed ([6]; 10 mg/mL, −20° C.): No

CN1CC=CCCOc2cccc(c2)C2=CC=NC(=Nc3cccc(c3)C1)N2.O=C(O)/C=C/C(=O)O [Fumarate Pattern 1, 14-methyl-20-oxa-5,7,14,27-tetraazatetracyclo-[19.3.1.12,6.18,12]heptacosa-1(25),2,4,6,8,10,12(26),16,21,23-decaene fumarate]
XPRD stability after 40° C./75% RH 2 weeks ([1]; listed as Fumarate pattern 1, fumarate): No change

CN1CC=CCCOc2cccc(c2)C2=CC=NC(=Nc3cccc(c3)C1)N2.O=C(O)/C=C/C(=O)O [Fumarate Pattern 2, 14-methyl-20-oxa-5,7,14,27-tetraazatetracyclo-[19.3.1.12,6.18,12]heptacosa-1(25),2,4,6,8,10,12(26),16,21,23-decaene fumarate]
XPRD stability after 40° C./75% RH 2 weeks ([1]; fumarate): not sensitive to humidity
XPRD stability after 40° C./75% RH 2 weeks ([1]; listed as Fumarate pattern 2, fumarate): no transformation
XPRD stability after 40° C./75% RH 2 weeks ([1]; listed as Fumareate pattern 2, fumarate): No change
XPRD stability after 40° C./75% RH 2 weeks [1, 15]: crystallinity, and no change was observed after
changes in the XRPD pattern after the GVS experiment ([2]; fumarate): no transformation
changes in the XRPD pattern after the GVS experiment [2, 15]: between 0 and 90% relative humidity. No
stability in the solid state [3]: stable
XPRD Characterisation after maturation ([4]; Acetone, w/ water (5% v/v)): Fumarate Pattern 2
XPRD Characterisation after maturation ([4]; Acetone, w/o water): Fumarate Pattern 2
XPRD Characterisation after maturation [4, 7]: Fumarate Pattern 2
XPRD Characterisation after maturation ([4]; Acetonitrile, w/o water): Fumarate Pattern 2
XPRD Characterisation after maturation ([4]; DCM, w/ water (5% v/v)): Fumarate Pattern 2
XPRD Characterisation after maturation [4, 8]: Fumarate Pattern 2
XPRD Characterisation after maturation ([4]; EtOH, w/ water (5% v/v)): Fumarate Pattern 2
XPRD Characterisation after maturation ([4]; EtOH, w/o water): Fumarate Pattern 2
XPRD Characterisation after maturation [4, 9]: Fumarate Pattern 1
XPRD Characterisation after maturation ([4]; Ethyl acetate, w/o water): Fumarate Pattern 2
XPRD Characterisation after maturation ([4]; IPA, w/ water (5% v/v)): Fumarate Pattern 2
XPRD Characterisation after maturation ([4]; IPA, w/o water): Fumarate Pattern 2
XPRD Characterisation after maturation ([4]; TBME, w/ water (5% v/v)): Fumarate Pattern 1
XPRD Characterisation after maturation ([4]; TBME, w/o water): Fumarate Pattern 2
XPRD Characterisation after maturation ([4]; THF, w/ water (5% v/v)): Fumarate Pattern 2
XPRD Characterisation after maturation ([4]; THF, w/o water): Fumarate Pattern 2
XPRD Characterisation after maturation ([4]; Toluene, w/ water (5% v/v)): Fumarate Pattern 1
XPRD Characterisation after maturation ([4]; Toluene, w/o water): Fumarate Pattern 2
transformation after 3 days of maturation in dried solvents [4]: No transformation
XPRD Characterisation after maturation [4, 10]: Fumarate Pattern 2
XPRD Characterisation after maturation ([4]; nitromethane, w/o water): Fumarate Pattern 2
XPRD Characterisation after maturation ([4]; pure water): Fumarate Pattern 1
solubility at 24 h [5]: 29 µg/mL
final pH [5]: 3.80
aqueous solubility [5]: 0.029 mg/mL
Time points where transformation was observed ([6]; 1 mg/mL, 4° C.): 120 h
Time points where transformation was observed [6, 11]: 24 h
Time points where transformation was observed [6, 12]: 48 h
Time points where transformation was observed ([6]; 1 mg/mL, −20° C.): 120 h
Time points where transformation was observed ([6]; 10 mg/mL, 4° C.): No
Time points where transformation was observed [6, 13]: 48 h
Time points where transformation was observed [6, 14]: 120 h
Time points where transformation was observed ([6]; 10 mg/mL, −20° C.): No
